Assay results reported in paper PMC11678245, “The Molecular Basis of the Intrinsic and Acquired Resistance to Azole Antifungals in Aspergillus fumigatus” (Journal of Fungi, 2024).
Entries after “also recorded” stand apart in the source; their conditions may differ. Numbered stars: 1 amine (or outer) side, 2 acyl side, 3 side chain; on linkers, the order of the positions; unused ones are H or OH. Bridge positions count the residues as written; N and C are the ends. Square brackets hold non-standard residues; d marks the D form. Peptide text beside a SMILES is read from it. * marks the point of attachment. hTyr(3S-OH,4S-OH,3'-OSO3H) = N[C@H](C(=O)O)[C@H](O)[C@@H](O)c1ccc(O)c(OS(=O)(=O)O)c1; Orn(4R-OH,5R-OH) = O=C([C@H](C[C@@H](O)[C@@H](O)N[*:3])N[*:1])[*:2]; Pro(3S-OH,4S-Me) = C[C@H]1CN[C@H](C(=O)O)[C@H]1O; X1 = CCCCCOc1ccc(-c2cc(-c3ccc(C(=O)*)cc3)no2)cc1; Gln(3R-OH) = NC(=O)C[C@@H](O)[C@H](N)C(=O)O; Hyp = O=C(O)[C@@H]1C[C@@H](O)CN1

Key:
[1] = target: AfCYP51A-6×His (Aspergillus fumigatus, UniProt Q4WNT5); experiment: Type I binding of substrates (difference spectra); set-up: Full-length codon-optimised AfCYP51A-6×His and AfCYP51B-6×His were constitutively co-expressed; made in house; details: AfCYP51A-6×His 5 µM, concentrations up to 300 μM
Procedure: (§1) The concentration of AfCYP51A and AfCYP51B, purified using Ni-NTA affinity chromatography and used for the spectrophotometric type I and type II binding assays, was calculated using an extinction co-efficient of λ417nm = 117 mM^−1 cm^−1 applied to the absolute absorption spectrum of the preparations. In addition, the amount of “active” cytochrome P450 enzyme was determined using the carbon monoxide (CO) binding spectra of these preparations.
Type I binding of substrates lanosterol and eburicol in the active site of the Ni-NTA affinity-purified AfCYP51A and AfCYP51B enzymes was assessed using the method of Warrilow et al.. […] Substrate saturation curves were constructed by plotting the maximal ∆Apeak−trough obtained between 350 and 500 nm, allowing for a change in the reaction volume during the titration. The substrate binding constant (KS) was calculated by nonlinear regression (Levenberg–Marquardt algorithm) applied to the Michaelis–Menten equation or the Hill equation. GraphPad Prism 9.2.0 software was used to identify the best fit for the data.

[2] = target: T1, AfCYP51B-6×His (Aspergillus fumigatus, UniProt E9QY26); experiment: Type I binding of substrates (difference spectra); details: for ΔAmax (type I binding): AfCYP51B-6×His 5 μM, Michaelis–Menten equation
T1 sequence (E9QY26 1-524): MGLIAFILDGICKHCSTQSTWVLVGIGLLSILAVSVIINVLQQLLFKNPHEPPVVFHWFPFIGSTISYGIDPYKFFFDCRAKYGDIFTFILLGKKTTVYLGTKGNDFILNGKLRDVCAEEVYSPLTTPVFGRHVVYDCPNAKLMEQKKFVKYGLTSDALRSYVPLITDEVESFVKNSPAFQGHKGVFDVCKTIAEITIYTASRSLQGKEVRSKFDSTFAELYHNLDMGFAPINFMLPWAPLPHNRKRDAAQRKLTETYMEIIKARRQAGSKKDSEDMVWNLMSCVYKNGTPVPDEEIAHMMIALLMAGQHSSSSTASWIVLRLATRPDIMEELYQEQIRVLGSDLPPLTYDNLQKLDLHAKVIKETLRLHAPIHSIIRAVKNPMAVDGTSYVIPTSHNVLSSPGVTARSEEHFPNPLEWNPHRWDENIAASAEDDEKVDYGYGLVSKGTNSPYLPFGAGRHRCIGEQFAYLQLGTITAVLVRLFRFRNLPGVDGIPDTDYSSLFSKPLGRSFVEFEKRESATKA
Procedure: as §1
Type I binding of substrates lanosterol and eburicol in the active site of the Ni-NTA affinity-purified AfCYP51A and AfCYP51B enzymes was assessed using the method of Warrilow et al.. Titrations of 5 μM AfCYP51-6×His protein with lanosterol or eburicol (1 to 250 μM) were measured using a Cary 300 UV–Visible Spectrophotometer (Agilent Technologies, Santa Clara, CA, USA). Substrate saturation curves were constructed by plotting the maximal ∆Apeak−trough obtained between 350 and 500 nm, allowing for a change in the reaction volume during the titration. The substrate binding constant (KS) was calculated by nonlinear regression (Levenberg–Marquardt algorithm) applied to the Michaelis–Menten equation or the Hill equation. GraphPad Prism 9.2.0 software was used to identify the best fit for the data.

[3] = tested on: S. cerevisiae strain A (AfCyp51A-6×His, native ScCyp51 retained); experiment: MIC80 susceptibility, strain A; format: cell-based; details: Saccharomyces cerevisiae, Table 2, SD pH 6.8, 48 h, 30 °C
Procedure: (§2) The susceptibilities of S. cerevisiae strains to antifungal drugs were determined as minimum growth inhibitory concentration (MIC) values in 200 μL SD pH 6.8 [24]. Serial 2-fold dilutions of 100 μL of azole or control drugs in SD pH 6.8 were prepared in a 96-well microtiter plate. A portion of a 2 mL SD pH 6.8 overnight culture of the test strain was inoculated into 3 mL fresh SD pH 6.8 and incubated for 4 to 6 h at 30 °C to generate logarithmic-phase cells. These cells were then diluted with fresh SD pH 6.8 to OD600nm = 0.01 (3 × 10^4 CFU), and 100 μL of this cell suspension was added to microtiter plate wells. Cell growth after 48 h incubation at 30 °C with shaking at 200 rpm was determined at 600 nm using a BioTek™ Synergy™ 2 multi-Mode microplate reader controlled using Gen5™ Data Analysis Software version 3.16.10 (BioTek Instruments, Winooski, VT, USA). MIC80 values (80% growth inhibition in the presence of the test drug compared with the untreated control) for each yeast construct were determined as technical triplicates repeated three times for three separate clones.

[4] = tested on: S. cerevisiae strain ARE Y121F (AfCyp51A-6×His Y121F, AfCprA2, AfErg6-FLAG); experiment: MIC80 susceptibility, strain Y121F; format: cell-based, Saccharomyces cerevisiae; details: Saccharomyces cerevisiae; Table 2; strain Y121F; SD pH 6.8, 48 h, 30 °C; ± SD; read-out: MIC80
Procedure: as §2

[5] = tested on: S. cerevisiae strain ADΔΔ (native ScCYP51); experiment: MIC80 susceptibility, host strain ADΔΔ; format: cell-based; details: Saccharomyces cerevisiae, Table 2, SD pH 6.8, 48 h, 30 °C
Procedure: as §2

[6] = tested on: S. cerevisiae strain BR (AfCyp51B-6×His, AfCprA2-6×His); experiment: MIC80 susceptibility, strain BR; format: cell-based; details: Saccharomyces cerevisiae; Table 2; strain BR; SD pH 6.8, 48 h, 30 °C; ± SD; read-out: MIC80
Procedure: as §2

[7] = tested on: S. cerevisiae strain BRE (AfCyp51B-6×His, AfCprA2, AfErg6-FLAG); experiment: MIC80 susceptibility, strain BRE; format: cell-based, Saccharomyces cerevisiae; details: Saccharomyces cerevisiae; Table 2; strain BRE; SD pH 6.8, 48 h, 30 °C; ± SD; read-out: MIC80
Procedure: as §2

[8] = tested on: S. cerevisiae strain ARE T289A (AfCyp51A-6×His T289A, AfCprA2, AfErg6-FLAG); experiment: MIC80 susceptibility, strain T289A; format: cell-based, Saccharomyces cerevisiae; details: Saccharomyces cerevisiae, 48 h, pH 6.8, Table 2; strain T289A; SD pH 6.8, 48 h, 30 °C; ± SD; read-out: MIC80
Procedure: as §2

[9] = tested on: S. cerevisiae strain ARE Y121F T289A (AfCyp51A-6×His Y121F T289A, AfCprA2, AfErg6-FLAG); experiment: MIC80 susceptibility, strain Y121F T289A; format: cell-based, Saccharomyces cerevisiae; details: Saccharomyces cerevisiae; Table 2; strain Y121F T289A; SD pH 6.8, 48 h, 30 °C; ± SD; read-out: MIC80
Procedure: as §2

[10] = tested on: S. cerevisiae strain ARE I301T (AfCyp51A-6×His I301T, AfCprA2, AfErg6-FLAG); experiment: MIC80 susceptibility, strain I301T; format: cell-based, Saccharomyces cerevisiae; details: Saccharomyces cerevisiae, 48 h, pH 6.8, Table 2; strain I301T; SD pH 6.8, 48 h, 30 °C; ± SD; read-out: MIC80
Procedure: as §2

[11] = tested on: S. cerevisiae strain B (AfCyp51B-6×His, native ScCyp51 retained); experiment: MIC80 susceptibility, strain B; format: cell-based; details: Saccharomyces cerevisiae, Table 2, SD pH 6.8, 48 h, 30 °C
Procedure: as §2

[12] = tested on: S. cerevisiae strain AR (AfCyp51A-6×His, AfCprA2-6×His); experiment: MIC80 susceptibility, strain AR; format: cell-based, Saccharomyces cerevisiae; details: Saccharomyces cerevisiae; Table 2; strain AR; SD pH 6.8, 48 h, 30 °C; ± SD; read-out: MIC80
Procedure: as §2

Chain of AfCYP51A-6×His (Q4WNT5 whole entry): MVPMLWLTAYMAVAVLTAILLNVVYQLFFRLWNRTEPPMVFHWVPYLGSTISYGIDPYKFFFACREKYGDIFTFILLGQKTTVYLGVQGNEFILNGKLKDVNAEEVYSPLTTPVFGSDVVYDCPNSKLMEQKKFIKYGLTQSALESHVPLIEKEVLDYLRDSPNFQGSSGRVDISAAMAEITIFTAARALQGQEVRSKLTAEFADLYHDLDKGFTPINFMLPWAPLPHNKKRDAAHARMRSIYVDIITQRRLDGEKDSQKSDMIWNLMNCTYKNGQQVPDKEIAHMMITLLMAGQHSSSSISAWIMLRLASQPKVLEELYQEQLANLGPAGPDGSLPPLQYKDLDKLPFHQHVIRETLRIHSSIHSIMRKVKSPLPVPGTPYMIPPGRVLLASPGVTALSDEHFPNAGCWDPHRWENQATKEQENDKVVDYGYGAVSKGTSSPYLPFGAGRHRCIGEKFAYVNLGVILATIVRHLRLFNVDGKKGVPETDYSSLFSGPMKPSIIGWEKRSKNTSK

SMILES	type I binding response [1]	Kd [2]	type I binding spectrum peak ([2]; AfCYP51B-6×His)	type I binding spectrum trough ([2]; AfCYP51B-6×His)	ΔAmax (type I binding) [2]	ΔAmax (type I binding) ([2]; listed as eburicol)	affinity of AfCYP51B for eburicol versus lanosterol ([2]; ratio of Ks values)	MIC80 [3]	MIC80 [4]	MIC80 [5]	MIC80 [6]	MIC80 [7]	MIC80 [8]	MIC80 [9]	MIC80 [10]	MIC80 [11]	MIC80 [12]
C=C(CC[C@@H](C)[C@H]1CC[C@@]2(C)C3=C(CC[C@]12C)[C@@]1(C)CC[C@H](O)C(C)(C)C1CC3)C(C)C (some centres unmarked) [Eburicol, eburicol]	did not give the expected type I binding response; also recorded: did not give a type I binding response	71 µM	387 nm	422 nm	0.161	0.16	at least 6 fold										
CCCCCOc1ccc(-c2cc(-c3ccc(C(=O)N[C@H]4C[C@@H](O)[C@@H](O)NC(=O)[C@@H]5[C@@H](O)[C@@H](C)CN5C(=O)[C@H]([C@H](O)CC(N)=O)NC(=O)[C@H]([C@H](O)[C@@H](O)c5ccc(O)c(OS(=O)(=O)O)c5)NC(=O)[C@@H]5C[C@@H](O)CN5C(=O)[C@H]([C@@H](C)O)NC4=O)cc3)no2)cc1 [MCF, Micafungin] (X1-[Orn(4R-OH,5R-OH)]T[Hyp][hTyr(3S-OH,4S-OH,3'-OSO3H)][Gln(3R-OH)][Pro(3S-OH,4S-Me)]; lactam 1-C)								0.19 ± 0.03 µM	0.24 ± 0.02 µM	0.22 ± 0.02 µM	0.17 ± 0.03 µM	0.14 ± 0.01 µM	0.27 µM	0.21 ± 0.01 µM	0.28 ± 0.01 µM	0.18 ± 0.02 µM	0.17 ± 0.03 µM
